EPA's ToxValDB 9.5 (doi:10.2903/j.efsa.2005.43r)
Converted amounts (≈) assume the structure as drawn.

Legend:
Mesograpta sp. = assay: LR50; higher = less toxic; settings: chronic/long-term, mortality
Tagia sp. = settings: acute; duration: 14 days; mortality
Pimephales promelas = settings: chronic/long-term; duration: 36 days
Canidae = settings: chronic; duration: 1 years; oral; Dog Other; hematological
Daphnia magna = settings: chronic/long-term; duration: 21 days; reproduction
Oncorhynchus mykiss = settings: acute; duration: 96 hours; mortality
Apis mellifera = settings: acute, duration: 24 hours, mortality
Anas platyrhynchos = settings: reproductive
Colinus virginianus = settings: acute, oral, mortality

With `Cc1nc(N(C)C)nc(OC(=O)N(C)C)c1C` [Pirimicarb] the LR50 (Mesograpta sp.; duration: 16 days) was 14.6 g/ha, the LR50 (Mesograpta sp.; duration: 28 days) was 14.6 g/ha and the LD50 (Rattus norvegicus; acute, oral, F, mortality) was 142 mg/kg. It also gave an NOAEL (Rattus norvegicus; acute, oral, gavage, clinical signs) of 10 mg/kg-day, an NOEC (Rattus norvegicus; reproduction developmental) of 81.8 mg/kg-day and an LC50 (Tagia sp.) of over 60 mg/kg. For the same molecule, the NOEC (Pimephales promelas) was 10 mg/L, the NOAEL (Canidae) was 3.5 mg/kg-day and the NOEC (Daphnia magna) was 0.0009 mg/L. It also gave an LC50 (Oncorhynchus mykiss) of 79 µg/mL (≈ 332 µM), an LD50 (Apis mellifera; dermal) of 53.1 µg/piece and an LD50 (Apis mellifera; oral, unspecified) of 4 µg/piece. For the same molecule, the NOEC (Anas platyrhynchos) was 12.1 mg/kg-day, the LC50 (Colinus virginianus; duration: 5 days, diet) was 394 mg/kg-day and the LD50 (Colinus virginianus; gavage) was 20.9 mg/kg.
